# Key:
# [1] = molecular target: T1, GST-tagged Tankyrase-2 (873-1166 aa) (Homo sapiens, UniProt Q9H2K2); assay: Tankyrase 2 autoparsylation HTRF enzyme assay; assay type: biochemical; settings: read-out: IC50 TNKS2 enzyme assay
# T1 construct: GST-tagged Tankyrase-2 (873-1166 aa)
# Protocol: Biochemical activity testing of Tankyrase 1 and 2: Autoparsylation assay
# (§1) The autoparsylation assay is run in two steps: the enzymatic reaction in which GST-tagged Tankyrase-1, resp Tankyrase-2 transferred biotinylated ADP-ribose to itself from biotinylated NAD as co-substrate and the detection reaction where a time resolved FRET between cryptate labelled anti-GST bound to the GST tag of the enzyme and Xlent® labelled-streptavidin bound the biotin-parsylation residue is analysed. The autoparsylation activity was detectable directly via the increase in HTRF signal.
# The autoparsylation assay is performed as 384-well HTRF® (Cisbio, Codolet, France) assay format in Greiner low volume nb 384-well microtiter plates and is used for high throughput screen. 250 nM GST-tagged Tankyrase-1 (1023-1327 aa), respectively about 250 nM GST-tagged Tankyrase-2 (873-1166 aa) and 5 μM bio-NAD (Biolog, Life science Inst., Bremen, Germany) as co-substrate are incubated in a total volume of 5 μl (50 mM HEPES, 4 mM Mg-chloride, 0.05% Pluronic F-68, 1.4 mM DTT, 0.5% DMSO, pH 7.7) in the absence or presence of the test compound (10 dilution concentrations) for 90 min at 30° C. The reaction is stopped by the addition of 1 μl 50 mM EDTA solution. 2 μl of the detection solution (1.6 μM SA-Xlent® (Cisbio, Codolet, France), 7.4 nM Anti-GST-K® (Eu-labelled anti-GST, Cisbio, Codolet, France) in 50 mM HEPES, 800 mM KF, 0.1% BSA, 20 mM EDTA, 0.1% CHAPS, pH 7.0) are added. After 1 h incubation at room temperature the HTRF is measured with an Envision multimode reader (Perkin Elmer LAS Germany GmbH) at excitation wavelength 340 nm (laser mode) and emission wavelengths 615 nm and 665 nm. The ratio of the emission signals is determined. The full value used is the inhibitor-free reaction. The pharmacological zero value used is XAV-939 (Tocris) in a final concentration of 5 μM. The inhibitory values (IC50) are determined using either the program Symyx Assay Explorer® or Condosseo® from GeneData.
# [2] = system: Tankyrase; assay: Cellular inhibition of Tankyrase: Axin2 level in DLD1 cells (Luminex); assay type: cell-based; settings: 24 hours, Axin2 increase, read-out: EC50 [M] TNKS cellular assay
# Procedure, shortened: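 DLD1 colon carcinoma cells treated 24 h with seven-step serial dilutions in triplicate (0.3% DMSO final). Axin2 in cleared lysates captured on anti-Axin2 beads, detected with polyclonal anti-Axin2 plus PE secondary, and quantified by Luminex. EC50 from data normalized to solvent control; IWR-2 (3E-06 M) marks maximal Axin2 increase.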
# [3] = molecular target: T2, His-tagged Parp-1 (Homo sapiens, UniProt P09874); assay: PARP-1 autoparsylation HTRF assay; assay type: biochemical
# T2 construct: purchased Enzo Life Sciences GmbH, Lörrach, Germany
# Description: Description of the PARP1 Assay
# Biochemical Activity Testing of PARP-1: Autoparsylation Assay
# as §1, with “His-tagged Parp-1 transfers” for “GST-tagged Tankyrase-1, resp Tankyrase-2 transferred”, “ADP-ribose/ADP-ribose” for “ADP-ribose”, “NAD/NAD” for “NAD”, “anti-His antibody” for “anti-GST”, “His” for “GST”, “is” for “was”
# The autoparsylation assay is performed as 384-well HTRF® (Cisbio, Codolet, France) assay format in Greiner low volume nb 384-well microtiter plates. 35 nM His-tagged Parp-1 (human, recombinant, Enzo Life Sciences GmbH, Lörrach, Germany) and a mixture of 125 nM bio-NAD (Biolog, Life science Inst., Bremen, Germany) and 800 nM NAD as co-substrate are incubated in a total volume of 6 μl (100 mM Tris/HCl, 4 mM Mg-chloride, 0.01% IGEPAL® CA630, 1 mM DTT, 0.5% DMSO, pH 8, 13 ng/μl activated DNA (BPS Bioscience, San Diego, US)) in the absence or presence of the test compound (10 dilution concentrations) for 150 min at 23° C. The reaction is stopped by the addition of 4 μl of the Stop/detection solution (70 nM SA-Xlent® (Cisbio, Codolet, France), 2.5 nM Anti-His-K® (Eu-labelled anti-His, Cisbio, Codolet, France) in 50 mM HEPES, 400 mM KF, 0.1% BSA, 20 mM EDTA, pH 7.0). After 1 h incubation at room temperature the HTRF iss measured with an Envision multimode reader (Perkin Elmer LAS Germany GmbH) at excitation wavelength 340 nm (laser mode) and emission wavelengths 615 nm and 665 nm. The ratio of the emission signals is determined. The full value used is the inhibitor-free reaction. The pharmacological zero value used is Olaparib (LClabs, Woburn, US) in a final concentration of 1 μM. The inhibitory values (IC50) are determined using either the program Symyx Assay Explorer® or Condosseo® from GeneData.
# T2 sequence (P09874 whole entry): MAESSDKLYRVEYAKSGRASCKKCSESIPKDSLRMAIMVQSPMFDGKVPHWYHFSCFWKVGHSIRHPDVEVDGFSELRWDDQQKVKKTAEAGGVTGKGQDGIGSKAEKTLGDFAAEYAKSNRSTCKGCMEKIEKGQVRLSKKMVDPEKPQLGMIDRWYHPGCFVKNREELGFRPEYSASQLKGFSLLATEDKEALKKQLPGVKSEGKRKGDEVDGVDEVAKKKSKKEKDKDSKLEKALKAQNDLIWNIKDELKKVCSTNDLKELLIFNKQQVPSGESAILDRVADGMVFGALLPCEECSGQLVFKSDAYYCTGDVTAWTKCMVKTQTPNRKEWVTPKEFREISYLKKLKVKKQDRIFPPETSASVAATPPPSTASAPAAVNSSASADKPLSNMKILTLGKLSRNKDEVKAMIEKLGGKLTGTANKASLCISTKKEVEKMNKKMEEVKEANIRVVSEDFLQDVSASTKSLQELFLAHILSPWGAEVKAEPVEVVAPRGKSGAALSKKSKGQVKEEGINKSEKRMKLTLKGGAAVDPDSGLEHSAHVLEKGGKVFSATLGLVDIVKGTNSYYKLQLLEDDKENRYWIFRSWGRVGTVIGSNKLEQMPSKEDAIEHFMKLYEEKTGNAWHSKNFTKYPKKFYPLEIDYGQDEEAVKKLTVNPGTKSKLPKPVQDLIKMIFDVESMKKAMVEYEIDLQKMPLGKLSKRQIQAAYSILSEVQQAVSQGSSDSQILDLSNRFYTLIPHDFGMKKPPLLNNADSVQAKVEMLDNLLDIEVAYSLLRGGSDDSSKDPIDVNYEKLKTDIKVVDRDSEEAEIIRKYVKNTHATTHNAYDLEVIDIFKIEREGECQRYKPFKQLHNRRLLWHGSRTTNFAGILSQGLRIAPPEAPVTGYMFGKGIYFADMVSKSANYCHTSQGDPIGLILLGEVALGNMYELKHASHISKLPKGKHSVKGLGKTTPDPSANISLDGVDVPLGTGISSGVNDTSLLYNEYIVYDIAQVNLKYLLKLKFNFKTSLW
# T1 sequence (Q9H2K2 873-1166): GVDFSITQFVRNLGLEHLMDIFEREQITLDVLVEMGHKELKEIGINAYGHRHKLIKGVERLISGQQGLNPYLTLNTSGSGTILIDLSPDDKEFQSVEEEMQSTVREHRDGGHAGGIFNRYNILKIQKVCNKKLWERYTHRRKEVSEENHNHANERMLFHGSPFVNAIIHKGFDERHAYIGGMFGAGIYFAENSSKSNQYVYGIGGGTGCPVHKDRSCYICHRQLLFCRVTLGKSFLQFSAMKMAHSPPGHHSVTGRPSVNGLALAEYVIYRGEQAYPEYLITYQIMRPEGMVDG
SMILES,IC50 [1],EC50 [2],IC50 [3]
"Cc1cccc(N(C)C(=O)N2CCC(C(=O)c3ccccc3)CC2)c1 [Compound A1, 4-benzoyl-piperidine-1-carboxylic acid methyl-m-tolyl-amide]",0.3 to 3 µM,3e-07 to 3e-06 M,3 to 50 µM
"Cc1ccc(N(C)C(=O)N2CCC(C(=O)c3ccccc3)CC2)cc1 [Compound A2, 4-benzoyl-piperidine-1-carboxylic acid methyl-p-tolyl-amide]",0.3 to 3 µM,3e-07 to 3e-06 M,3 to 50 µM
"COc1ccc(N(C)C(=O)N2CCC(C(=O)c3ccccc3)CC2)cc1 [Compound A4, 4-benzoyl-piperidine-1-carboxylic acid (4-methoxy-phenyl)-methyl-amide]",0.3 to 3 µM,3e-07 to 3e-06 M,3 to 50 µM
"COc1ccc(N(C)C(=O)N2CCC(C(=O)c3ccc(C)cc3)CC2)cc1 [Compound A5, 4-(4-methyl-benzoyl)-piperidine-1-carboxylic acid (4-methoxy-phenyl)-methylamide]",0.3 to 3 µM,< 3e-07 M,3 to 50 µM
"COc1ccc(C(=O)C2CCN(C(=O)N(C)c3ccc(OC)cc3)CC2)cc1 [Compound A6, 4-(4-methoxy-benzoyl)-piperidine-1-carboxylic acid (4-methoxy-phenyl)methyl-amide]",0.3 to 3 µM,< 3e-07 M,3 to 50 µM
"COc1ccc(N(C)C(=O)N2CCC(C(=O)c3cccc(F)c3)CC2)cc1 [Compound A7, 4-(3-fluoro-benzoyl)-piperidine-1-carboxylic acid (4-methoxy-phenyl)-methylamide]",0.3 to 3 µM,3e-07 to 3e-06 M,3 to 50 µM
"COc1ccc(N(C)C(=O)N2CCC(C(=O)c3ccc(F)cc3)CC2)cc1 [Compound A8, 4-(4-fluoro-benzoyl)-piperidine-1-carboxylic acid (4-methoxy-phenyl)-methylamide]",0.3 to 3 µM,< 3e-07 M,3 to 50 µM
"CN(C(=O)N1CCC(C(=O)c2ccccc2)CC1)c1ccc(F)cc1 [Compound A13, 4-benzoyl-piperidine-1-carboxylic acid (4-fluoro-phenyl)-methyl-amide]",0.3 to 3 µM,3e-07 to 3e-06 M,3 to 50 µM
"CCN(C(=O)N1CCC(C(=O)c2ccccc2)CC1)c1ccc(OC)cc1 [Compound A14, 4-benzoyl-piperidine-1-carboxylic acid ethyl-(4-methoxy-phenyl)-amide]",0.3 to 3 µM,< 3e-07 M,3 to 50 µM
"COc1ccc(N(CCO)C(=O)N2CCC(C(=O)c3ccccc3)CC2)cc1 [Compound A15, 4-benzoyl-piperidine-1-carboxylic acid (2-hydroxy-ethyl)-(4-methoxy-phenyl)amide]",0.3 to 3 µM,3e-07 to 3e-06 M,3 to 50 µM
"O=C(c1ccccc1)C1CCN(C(=O)N2CCc3ccccc32)CC1 [Compound A16, (4-benzoyl-piperidin-1-yl)-(2,3-dihydro-indol-1-yl)-methanone]",0.3 to 3 µM,3e-06 to 5e-05 M,3 to 50 µM
"Cc1ccc(C(=O)C2CCN(C(=O)N3CCc4ccccc43)CC2)cc1 [Compound A17, (2,3-dihydro-indol-1-yl)-[4-(4-methyl-benzoyl)-piperidin-1-yl]-methanone]",0.3 to 3 µM,3e-07 to 3e-06 M,3 to 50 µM
"COc1ccc(C(=O)C2CCN(C(=O)N3CCc4ccccc43)CC2)cc1 [Compound A18, (2,3-dihydro-indol-1-yl)-[4-(4-methoxy-benzoyl)-piperidin-1-yl]-methanone]",0.3 to 3 µM,3e-07 to 3e-06 M,3 to 50 µM
"CCN(C(=O)N1CCC(C(=O)c2ccc(OC)c(C)c2)CC1)c1ccc(OC)cc1 [Compound A24, 4-(4-methoxy-3-methyl-benzoyl)-piperidine-1-carboxylic acid ethyl-(4-methoxy-phenyl)-amide]",0.3 to 3 µM,< 3e-07 M,3 to 50 µM
"COc1ccc(N(C)C(=O)N2CCC(C(=O)c3cccc(C)c3)CC2)cc1 [Compound A25, 4-(3-methyl-benzoyl)-piperidine-1-carboxylic acid (4-methoxy-phenyl)methyl-amide]",0.3 to 3 µM,< 3e-07 M,3 to 50 µM
"CCN(C(=O)N1CCC(C(=O)c2cccc(C)c2)CC1)c1ccc(OC)cc1 [Compound A26, 4-(3-methyl-benzoyl)-piperidine-1-carboxylic acid ethyl-(4-methoxy-phenyl)amide]",0.3 to 3 µM,< 3e-07 M,3 to 50 µM
"COc1ccc(N(C)C(=O)N2CCC(C(=O)c3cccc(OC)c3)CC2)cc1 [Compound A27, 4-(3-methoxy-benzoyl)-piperidine-1-carboxylic acid (4-methoxy-phenyl)methyl-amide]",0.3 to 3 µM,< 3e-07 M,3 to 50 µM
"CCN(C(=O)N1CCC(C(=O)c2cccc(OC)c2)CC1)c1ccc(OC)cc1 [Compound A28, 4-(3-methoxy-benzoyl)-piperidine-1-carboxylic acid ethyl-(4-methoxy-phenyl)amide]",< 0.3 µM,< 3e-07 M,3 to 50 µM
"COc1ccc(N(C)C(=O)N2CCC(C(=O)c3ccc(OC)c(F)c3)CC2)cc1 [Compound A29, 4-(3-fluoro-4-methoxy-benzoyl)-piperidine-1-carboxylic acid (4-methoxy-phenyl)-methyl-amide]",0.3 to 3 µM,< 3e-07 M,3 to 50 µM
"CN(C(=O)N1CCC(C(=O)c2ccc(NS(C)(=O)=O)cc2)CC1)c1ccccc1 [Compound A38, 4-(4-methanesulfonylamino-benzoyl)-piperidine-1-carboxylic acid methyl-phenyl-amide]",0.3 to 3 µM,3e-07 to 3e-06 M,3 to 50 µM
"CCOC(=O)CN(C(=O)N1CCC(C(=O)c2ccc(OC)cc2)CC1)c1ccccc1 [Compound A40, {[4-(4-methoxy-benzoyl)-piperidine-1-carbonyl]-phenyl-amino}-acetic acid ethyl ester]",0.3 to 3 µM,< 3e-07 M,3 to 50 µM
